Test results published in the kinase profiling compilation of Christmann-Franck et al. (2016).

Tests used:
Assay in all cases: KINOMEscan competition binding
Settings in all cases: compound 10.0 µM
EPHA1 (human) = EPHA1 (human) (UniProt P21709)
SGK110 (human) = SGK110 (human) (UniProt P0C264)
CDK19 (human) = CDK19 (human) (UniProt Q9BWU1)
CaMK1 (human) = CaMK1 (human) (UniProt Q14012)
ANKK1 (human) = ANKK1 (human) (UniProt Q8NFD2)
MKNK1 (human) = MKNK1 (human) (UniProt Q9BUB5)
SYK (human) = SYK (human) (UniProt P43405)
ICK (human) = ICK (human) (UniProt Q9UPZ9)
ERBB4 (human) = ERBB4 (human) (UniProt Q15303)
AKT3 (human) = AKT3 (human) (UniProt Q9Y243)
MAP3K4 (human) = MAP3K4 (human) (UniProt Q9Y6R4)
MARK3 (human) = MARK3 (human) (UniProt P27448)
HUNK (human) = HUNK (human) (UniProt P57058)
STK38L (human) = STK38L (human) (UniProt Q9Y2H1)
LRRK2 (human) = LRRK2 (human) (UniProt Q5S007)
PRKD2 (human) = PRKD2 (human) (UniProt Q9BZL6)
PRKCE (human) = PRKCE (human) (UniProt Q02156)
TGFBR1 (human) = TGFBR1 (human) (UniProt P36897)
BMP2K (human) = BMP2K (human) (UniProt Q9NSY1)
RIOK2 (human) = RIOK2 (human) (UniProt Q9BVS4)
RPS6KA5 KD2 (human) = RPS6KA5 KD2 (human) (UniProt O75582)
PIM1 (human) = PIM1 (human) (UniProt P11309)
ULK2 (human) = ULK2 (human) (UniProt Q8IYT8)
RIOK1 (human) = RIOK1 (human) (UniProt Q9BRS2)
CAMKK2 (human) = CAMKK2 (human) (UniProt Q96RR4)
GRK7 (human) = GRK7 (human) (UniProt Q8WTQ7)
NUAK1 (human) = NUAK1 (human) (UniProt O60285)
PIK3C2G (human) = PIK3C2G (human) (UniProt O75747)
MAP4K1 (human) = MAP4K1 (human) (UniProt Q92918)
EPHA2 (human) = EPHA2 (human) (UniProt P29317)
NEK7 (human) = NEK7 (human) (UniProt Q8TDX7)
PRKD3 (human) = PRKD3 (human) (UniProt O94806)
LATS1 (human) = LATS1 (human) (UniProt O95835)
ERBB3 (human) = ERBB3 (human) (UniProt P21860)
PI4KB (human) = PI4KB (human) (UniProt Q9UBF8)
MINK1 (human) = MINK1 (human) (UniProt Q8N4C8)
LATS2 (human) = LATS2 (human) (UniProt Q9NRM7)
EGFR (human) = EGFR (human) (UniProt P00533)
BMX (human) = BMX (human) (UniProt P51813)
[1] = tested on: PIK3CA (human), P42336 [I800L]
STK3 (human) = STK3 (human) (UniProt Q13188)

PRKD2 (human), sequence (Q9BZL6 whole entry, looked up): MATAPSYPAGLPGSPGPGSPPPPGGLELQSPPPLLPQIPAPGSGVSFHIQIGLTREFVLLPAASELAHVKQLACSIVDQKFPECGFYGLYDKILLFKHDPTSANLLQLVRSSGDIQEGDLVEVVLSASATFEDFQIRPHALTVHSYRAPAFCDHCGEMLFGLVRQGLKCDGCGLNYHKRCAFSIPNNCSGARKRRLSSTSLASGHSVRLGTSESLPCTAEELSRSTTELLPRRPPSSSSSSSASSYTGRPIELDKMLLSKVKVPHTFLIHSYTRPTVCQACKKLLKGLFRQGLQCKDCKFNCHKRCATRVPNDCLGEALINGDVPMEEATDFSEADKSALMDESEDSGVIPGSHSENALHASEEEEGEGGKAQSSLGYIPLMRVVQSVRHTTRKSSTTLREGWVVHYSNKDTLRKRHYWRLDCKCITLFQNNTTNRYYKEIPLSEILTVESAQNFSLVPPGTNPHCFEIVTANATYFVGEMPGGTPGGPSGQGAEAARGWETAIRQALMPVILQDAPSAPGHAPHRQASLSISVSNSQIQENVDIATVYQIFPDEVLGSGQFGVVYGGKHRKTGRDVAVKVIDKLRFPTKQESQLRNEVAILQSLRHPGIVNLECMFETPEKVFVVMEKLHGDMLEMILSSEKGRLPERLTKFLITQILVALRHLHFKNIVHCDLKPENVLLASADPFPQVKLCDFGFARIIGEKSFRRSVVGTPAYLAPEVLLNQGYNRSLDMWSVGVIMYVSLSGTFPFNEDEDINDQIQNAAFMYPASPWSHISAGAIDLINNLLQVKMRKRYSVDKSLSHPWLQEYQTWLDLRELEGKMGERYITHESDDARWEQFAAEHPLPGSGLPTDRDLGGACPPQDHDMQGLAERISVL
RIOK1 (human), sequence (Q9BRS2 whole entry, looked up): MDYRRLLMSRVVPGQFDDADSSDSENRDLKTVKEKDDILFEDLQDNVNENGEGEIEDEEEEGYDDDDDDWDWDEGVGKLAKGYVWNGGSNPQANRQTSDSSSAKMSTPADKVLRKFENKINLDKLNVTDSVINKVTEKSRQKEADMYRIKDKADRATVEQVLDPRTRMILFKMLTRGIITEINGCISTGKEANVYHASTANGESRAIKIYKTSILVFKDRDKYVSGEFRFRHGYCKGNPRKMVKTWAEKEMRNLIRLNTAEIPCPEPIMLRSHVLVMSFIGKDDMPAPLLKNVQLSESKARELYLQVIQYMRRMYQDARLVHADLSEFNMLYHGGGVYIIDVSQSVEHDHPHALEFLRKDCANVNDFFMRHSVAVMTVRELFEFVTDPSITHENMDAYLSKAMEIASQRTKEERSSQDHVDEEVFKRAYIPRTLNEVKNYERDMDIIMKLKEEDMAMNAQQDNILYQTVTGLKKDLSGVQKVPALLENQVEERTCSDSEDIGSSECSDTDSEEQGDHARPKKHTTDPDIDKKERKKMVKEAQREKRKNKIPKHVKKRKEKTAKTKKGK
ICK (human), sequence (Q9UPZ9 whole entry, looked up): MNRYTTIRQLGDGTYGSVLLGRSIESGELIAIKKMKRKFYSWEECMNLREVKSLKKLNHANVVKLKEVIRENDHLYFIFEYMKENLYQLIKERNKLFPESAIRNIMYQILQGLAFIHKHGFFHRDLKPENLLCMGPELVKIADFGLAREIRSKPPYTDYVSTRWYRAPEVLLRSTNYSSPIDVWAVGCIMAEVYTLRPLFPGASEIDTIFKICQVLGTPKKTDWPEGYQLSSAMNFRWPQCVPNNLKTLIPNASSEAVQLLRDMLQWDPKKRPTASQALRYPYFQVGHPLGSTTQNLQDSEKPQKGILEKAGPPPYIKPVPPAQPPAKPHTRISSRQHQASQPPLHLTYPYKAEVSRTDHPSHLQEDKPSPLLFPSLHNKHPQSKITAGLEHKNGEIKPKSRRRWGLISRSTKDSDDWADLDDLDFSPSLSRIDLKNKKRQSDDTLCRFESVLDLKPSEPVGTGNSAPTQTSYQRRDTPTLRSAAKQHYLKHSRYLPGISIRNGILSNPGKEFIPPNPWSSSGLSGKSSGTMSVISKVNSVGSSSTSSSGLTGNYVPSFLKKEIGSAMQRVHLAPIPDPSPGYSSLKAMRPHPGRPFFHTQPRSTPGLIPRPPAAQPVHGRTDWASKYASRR
MARK3 (human), sequence (P27448 whole entry, looked up): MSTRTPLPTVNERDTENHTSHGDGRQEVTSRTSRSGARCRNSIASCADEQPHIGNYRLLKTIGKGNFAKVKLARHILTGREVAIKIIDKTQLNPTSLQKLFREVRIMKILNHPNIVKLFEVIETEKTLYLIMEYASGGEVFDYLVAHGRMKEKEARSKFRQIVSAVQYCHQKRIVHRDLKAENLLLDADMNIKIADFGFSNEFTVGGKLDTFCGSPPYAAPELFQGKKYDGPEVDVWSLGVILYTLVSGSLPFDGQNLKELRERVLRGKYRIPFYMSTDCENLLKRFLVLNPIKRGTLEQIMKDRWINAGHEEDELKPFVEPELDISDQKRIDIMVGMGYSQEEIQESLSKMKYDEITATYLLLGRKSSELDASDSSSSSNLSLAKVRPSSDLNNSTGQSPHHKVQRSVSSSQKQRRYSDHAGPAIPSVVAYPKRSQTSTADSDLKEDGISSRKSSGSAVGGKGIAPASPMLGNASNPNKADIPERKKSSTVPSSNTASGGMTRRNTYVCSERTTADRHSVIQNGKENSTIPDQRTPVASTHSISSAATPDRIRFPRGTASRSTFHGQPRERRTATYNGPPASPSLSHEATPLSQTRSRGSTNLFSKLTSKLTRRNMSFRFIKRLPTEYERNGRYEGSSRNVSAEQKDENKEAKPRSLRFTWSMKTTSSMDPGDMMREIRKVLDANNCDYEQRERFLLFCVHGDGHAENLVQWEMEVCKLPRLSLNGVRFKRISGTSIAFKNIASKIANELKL
PI4KB (human), sequence (Q9UBF8 whole entry, looked up): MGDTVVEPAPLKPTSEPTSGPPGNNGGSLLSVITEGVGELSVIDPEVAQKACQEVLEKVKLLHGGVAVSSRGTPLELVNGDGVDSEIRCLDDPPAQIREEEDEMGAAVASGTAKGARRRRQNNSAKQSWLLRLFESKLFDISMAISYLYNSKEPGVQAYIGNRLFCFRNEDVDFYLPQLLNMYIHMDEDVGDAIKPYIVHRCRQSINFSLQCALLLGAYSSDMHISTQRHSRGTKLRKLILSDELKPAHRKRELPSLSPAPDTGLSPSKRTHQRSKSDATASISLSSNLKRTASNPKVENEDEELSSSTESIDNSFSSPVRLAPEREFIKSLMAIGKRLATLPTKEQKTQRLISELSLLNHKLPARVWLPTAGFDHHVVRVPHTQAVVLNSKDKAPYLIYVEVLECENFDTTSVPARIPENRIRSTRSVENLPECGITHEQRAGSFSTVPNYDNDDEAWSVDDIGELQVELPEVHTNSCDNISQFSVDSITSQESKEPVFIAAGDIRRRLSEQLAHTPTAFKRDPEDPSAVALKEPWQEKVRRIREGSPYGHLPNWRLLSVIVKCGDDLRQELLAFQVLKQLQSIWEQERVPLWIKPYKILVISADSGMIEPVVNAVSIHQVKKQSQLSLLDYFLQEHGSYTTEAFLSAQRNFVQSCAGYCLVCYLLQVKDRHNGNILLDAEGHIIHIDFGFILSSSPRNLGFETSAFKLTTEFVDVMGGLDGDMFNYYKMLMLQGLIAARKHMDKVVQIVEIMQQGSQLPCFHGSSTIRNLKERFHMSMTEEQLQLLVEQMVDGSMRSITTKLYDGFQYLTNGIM
SGK110 (human), sequence (P0C264 whole entry, looked up): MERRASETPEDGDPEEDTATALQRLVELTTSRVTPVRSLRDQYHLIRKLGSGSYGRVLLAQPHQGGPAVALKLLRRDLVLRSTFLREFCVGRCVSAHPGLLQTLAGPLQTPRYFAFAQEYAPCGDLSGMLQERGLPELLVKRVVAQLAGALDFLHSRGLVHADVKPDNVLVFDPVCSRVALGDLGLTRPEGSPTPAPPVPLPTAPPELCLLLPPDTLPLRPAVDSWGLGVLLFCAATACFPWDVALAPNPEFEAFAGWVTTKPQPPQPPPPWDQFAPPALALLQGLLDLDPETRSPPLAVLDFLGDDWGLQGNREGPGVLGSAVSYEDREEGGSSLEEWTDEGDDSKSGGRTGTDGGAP
GRK7 (human), sequence (Q8WTQ7 whole entry, looked up): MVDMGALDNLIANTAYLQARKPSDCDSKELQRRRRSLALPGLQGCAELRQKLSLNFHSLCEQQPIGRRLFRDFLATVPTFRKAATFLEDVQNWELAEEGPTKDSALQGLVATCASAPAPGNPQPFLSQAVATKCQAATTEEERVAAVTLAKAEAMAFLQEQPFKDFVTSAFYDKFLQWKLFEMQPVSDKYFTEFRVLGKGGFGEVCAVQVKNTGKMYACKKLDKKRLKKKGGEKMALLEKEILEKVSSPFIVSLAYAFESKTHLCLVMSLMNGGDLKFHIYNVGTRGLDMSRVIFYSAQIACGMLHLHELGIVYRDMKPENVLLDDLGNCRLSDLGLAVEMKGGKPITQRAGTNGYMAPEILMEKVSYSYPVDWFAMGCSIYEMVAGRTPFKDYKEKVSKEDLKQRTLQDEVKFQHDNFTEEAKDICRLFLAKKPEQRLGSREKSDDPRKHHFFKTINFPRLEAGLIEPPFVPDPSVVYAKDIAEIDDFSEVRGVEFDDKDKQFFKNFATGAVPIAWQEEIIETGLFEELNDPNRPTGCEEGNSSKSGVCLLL
MKNK1 (human), sequence (Q9BUB5 whole entry, looked up): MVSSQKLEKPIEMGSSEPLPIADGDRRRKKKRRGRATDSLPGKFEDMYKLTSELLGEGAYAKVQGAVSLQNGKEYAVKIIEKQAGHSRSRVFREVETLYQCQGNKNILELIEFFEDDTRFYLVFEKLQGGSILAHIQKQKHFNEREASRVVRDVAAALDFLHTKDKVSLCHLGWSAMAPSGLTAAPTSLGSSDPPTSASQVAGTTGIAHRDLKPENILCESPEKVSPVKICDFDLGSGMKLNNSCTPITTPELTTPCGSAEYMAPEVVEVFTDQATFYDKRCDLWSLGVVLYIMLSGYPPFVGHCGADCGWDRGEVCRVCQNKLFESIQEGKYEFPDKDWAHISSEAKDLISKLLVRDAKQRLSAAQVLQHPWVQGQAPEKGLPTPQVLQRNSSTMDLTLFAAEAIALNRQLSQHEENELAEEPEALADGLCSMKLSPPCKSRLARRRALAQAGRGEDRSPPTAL

## CC(C)n1nc(-c2cc3cc(O)ccc3[nH]2)c2c(N)ncnc21
EPHA1 (human)
  kinase still bound, per cent of control: 2.7%
SGK110 (human)
  kinase still bound, per cent of control: 100%
CDK19 (human)
  per cent of control: 24%
CaMK1 (human)
  kinase still bound, per cent of control: 45%
ANKK1 (human)
  kinase still bound, per cent of control: 8.8%
MKNK1 (human)
  kinase still bound, per cent of control: 19%
SYK (human)
  kinase still bound, per cent of control: 100%
ICK (human)
  kinase still bound, per cent of control: 58%
ERBB4 (human)
  kinase still bound, per cent of control: 49%
AKT3 (human)
  kinase still bound, per cent of control: 29%
MAP3K4 (human)
  kinase still bound, per cent of control: 85%
MARK3 (human)
  kinase still bound, per cent of control: 100%
HUNK (human)
  kinase still bound, per cent of control: 99%
STK38L (human)
  kinase still bound, per cent of control: 63%
LRRK2 (human)
  kinase still bound, per cent of control: 4.8%
PRKD2 (human)
  kinase still bound, per cent of control: 100%
PRKCE (human)
  kinase still bound, per cent of control: 0%
TGFBR1 (human)
  kinase still bound, per cent of control: 1.1%
BMP2K (human)
  kinase still bound, per cent of control: 33%
RIOK2 (human)
  kinase still bound, per cent of control: 38%
RPS6KA5 KD2 (human)
  kinase still bound, per cent of control: 22%
PIM1 (human)
  kinase still bound, per cent of control: 26%
ULK2 (human)
  kinase still bound, per cent of control: 39%
RIOK1 (human)
  kinase still bound, per cent of control: 100%
CAMKK2 (human)
  kinase still bound, per cent of control: 30%
GRK7 (human)
  kinase still bound, per cent of control: 2.9%
NUAK1 (human)
  kinase still bound, per cent of control: 86%
PIK3C2G (human)
  kinase still bound, per cent of control: 3.4%
MAP4K1 (human)
  kinase still bound, per cent of control: 33%
EPHA2 (human)
  kinase still bound, per cent of control: 9.4%
NEK7 (human)
  kinase still bound, per cent of control: 100%
PRKD3 (human)
  kinase still bound, per cent of control: 94%
LATS1 (human)
  kinase still bound, per cent of control: 55%
ERBB3 (human)
  kinase still bound, per cent of control: 0%
PI4KB (human)
  kinase still bound, per cent of control: 2.4%
MINK1 (human)
  kinase still bound, per cent of control: 7.7%
LATS2 (human)
  kinase still bound, per cent of control: 41%

## COC(=O)Nc1ccc(-c2nc(N3CCOCC3)c3cnn(C4CCN(C(=O)OC)CC4)c3n2)cc1
EPHA1 (human)
  kinase still bound, per cent of control: 100%
SGK110 (human)
  kinase still bound, per cent of control: 92%
CDK19 (human)
  per cent of control: 98%
CaMK1 (human)
  kinase still bound, per cent of control: 96%
ANKK1 (human)
  kinase still bound, per cent of control: 97%
MKNK1 (human)
  kinase still bound, per cent of control: 37%
SYK (human)
  kinase still bound, per cent of control: 83%
ICK (human)
  kinase still bound, per cent of control: 85%
ERBB4 (human)
  kinase still bound, per cent of control: 98%
AKT3 (human)
  kinase still bound, per cent of control: 100%
MAP3K4 (human)
  kinase still bound, per cent of control: 100%
MARK3 (human)
  kinase still bound, per cent of control: 100%
HUNK (human)
  kinase still bound, per cent of control: 95%
STK38L (human)
  kinase still bound, per cent of control: 97%
EGFR (human)
  kinase still bound, per cent of control: 100%
LRRK2 (human)
  kinase still bound, per cent of control: 91%
PRKD2 (human)
  kinase still bound, per cent of control: 100%
PRKCE (human)
  kinase still bound, per cent of control: 94%
TGFBR1 (human)
  kinase still bound, per cent of control: 100%
BMP2K (human)
  kinase still bound, per cent of control: 99%
RIOK2 (human)
  kinase still bound, per cent of control: 79%
RPS6KA5 KD2 (human)
  kinase still bound, per cent of control: 88%
PIM1 (human)
  kinase still bound, per cent of control: 100%
ULK2 (human)
  kinase still bound, per cent of control: 99%
RIOK1 (human)
  kinase still bound, per cent of control: 92%
CAMKK2 (human)
  kinase still bound, per cent of control: 84%
BMX (human)
  kinase still bound, per cent of control: 94%
GRK7 (human)
  kinase still bound, per cent of control: 100%
[1]
  kinase still bound, per cent of control: 0.4%
NUAK1 (human)
  kinase still bound, per cent of control: 72%
PIK3C2G (human)
  kinase still bound, per cent of control: 24%
MAP4K1 (human)
  kinase still bound, per cent of control: 100%
EPHA2 (human)
  kinase still bound, per cent of control: 100%
STK3 (human)
  kinase still bound, per cent of control: 85%
NEK7 (human)
  kinase still bound, per cent of control: 77%
PRKD3 (human)
  kinase still bound, per cent of control: 100%
LATS1 (human)
  kinase still bound, per cent of control: 100%
ERBB3 (human)
  kinase still bound, per cent of control: 100%
PI4KB (human)
  kinase still bound, per cent of control: 100%
MINK1 (human)
  kinase still bound, per cent of control: 100%
LATS2 (human)
  kinase still bound, per cent of control: 86%
